Patent publication US5352804A, “Isolation and structure of Halistatin 2” (Arizona Board of Regents, a body corporate, acting on …, priority 1993, dated 1994)
Like-named read-outs stand apart in the source and are kept apart here.

Assays:
[1] = tested on: 786-0; assay: NCI human tumor in vitro primary screen; type: cell-based; details: renal cancer
Excerpt: (§1) Only two hundred years ago, many diseases ravaged humankind. Many of these diseases now have been controlled or eradicated. In the development of the means to treat or control these diseases, work with the appropriate common experimental animals was of critical importance. With the various types of cancers, and with the HIV virus, such work is presently ongoing. The research for the treatment of various types of cancer is coordinated in the United States by the National Cancer Institute (NCI). NCI, as a government entity, has been charged with assisting anti-cancer research. To establish whether a substance has anti cancer activity, NCI has established a variety of protocols, one of which involves testing the candidate substance against a cell line panel containing 60 human tumor cell lines. This protocol has been verified and is generally accepted throughout the scientific community. This protocol and the established statistical means of evaluating the results obtained therefrom have been fully described in the literature. See Principles & Practice of Oncology PPO Updates, Volume 3, Number 10, Oct. 1989, by Michael R. Boyd, M.D., Ph.D., for an indepth description of the test protocol. The statistical analysis is explained in "Display and Analysis of Patterns of Differential Activity of Drugs Against Human Tumor Cell Lines: Development of Means Graph and COMPARE Algorithm" Journal of the National Cancer Institute Reports Vol. 81, No. 14, Pg. 1088, Jul. 14, 1989, by K. D. Paull et al. Both of these references are incorporated herein by this reference thereto.
(§2) Biological Testing; Data Display and Analysis; Screening Data Summary. Freshly isolated halistatin 2 was tested in the NCI's human tumor, disease-oriented in vitro primary screen, and data calculations performed. Table 3 is a composite prepared from mean graphs constructed from the averaged GI50 values from quadruplicate screenings of Halistatin 2.

[2] = tested on: CCRF-CEM; assay: NCI human tumor in vitro primary screen; type: cell-based; details: leukemia
Excerpt: as §1, §2

[3] = tested on: DLD-1; assay: NCI human tumor in vitro primary screen; type: cell-based; details: colon cancer
Excerpt: as §1, §2

[4] = tested on: HCT-15; assay: NCI human tumor in vitro primary screen; type: cell-based; details: colon cancer
Excerpt: as §1, §2

[5] = tested on: HOP-18; assay: NCI human tumor in vitro primary screen; type: cell-based; details: non-small cell lung cancer
Excerpt: as §1, §2

[6] = tested on: HOP-92; assay: NCI human tumor in vitro primary screen; type: cell-based; details: non-small cell lung cancer
Excerpt: as §1, §2

[7] = tested on: KM12; assay: NCI human tumor in vitro primary screen; type: cell-based; details: colon cancer
Excerpt: as §1, §2

[8] = tested on: M14; assay: NCI human tumor in vitro primary screen; type: cell-based; details: melanoma
Excerpt: as §1, §2

[9] = tested on: M19-MEL; assay: NCI human tumor in vitro primary screen; type: cell-based; details: melanoma
Excerpt: as §1, §2

[10] = tested on: MOLT-4; assay: NCI human tumor in vitro primary screen; type: cell-based; details: leukemia
Excerpt: as §1, §2

[11] = tested on: NCI-H460; assay: NCI human tumor in vitro primary screen; type: cell-based
Excerpt: as §1, §2

[12] = tested on: NCI-H522; assay: NCI human tumor in vitro primary screen; type: cell-based
Excerpt: as §1, §2

[13] = tested on: RPMI-8226; assay: NCI human tumor in vitro primary screen; type: cell-based; details: leukemia
Excerpt: as §1, §2

[14] = tested on: RXF-393; assay: NCI human tumor in vitro primary screen; type: cell-based
Excerpt: as §1, §2

[15] = tested on: SK-MEL-2; assay: NCI human tumor in vitro primary screen; type: cell-based; details: melanoma
Excerpt: as §1, §2

[16] = tested on: SK-OV-3; assay: NCI human tumor in vitro primary screen; type: cell-based; details: ovarian cancer
Excerpt: as §1, §2

[17] = tested on: SNB-78; assay: NCI human tumor in vitro primary screen; type: cell-based; details: CNS cancer
Excerpt: as §1, §2

[18] = tested on: SR; assay: NCI human tumor in vitro primary screen; type: cell-based; details: leukemia, read-out: averaged negative log10 GI50 (converted)
Excerpt: as §1, §2

[19] = tested on: U251; assay: NCI human tumor in vitro primary screen; type: cell-based; details: U-251, CNS cancer
Excerpt: as §1, §2

[20] = tested on: UACC-257; assay: NCI human tumor in vitro primary screen; type: cell-based; details: melanoma
Excerpt: as §1, §2

[21] = tested on: UO-31; assay: NCI human tumor in vitro primary screen; type: cell-based; details: renal cancer
Excerpt: as §1, §2

[22] = tested on: tubulin; assay: glutamate-induced polymerization of purified tubulin; type: biochemical
Procedure: Halistatin 2 was evaluated to determine if it was an antimitotic agent which interfered with the polymerization of purified tubulin and microtubule assembly dependent on microtubule-associated proteins isolated.
For radiolabeled GTP binding to tubulin, the same drug concentrations inhibited the reaction by 17% and 51% with halistatin 2.

[23] = tested on: tubulin; assay: binding of radiolabeled vinblastine to tubulin
[24] = read-out: Log10 GI50 (converted)
[25] = read-out: Log10 TGI (converted)
[26] = read-out: averaged negative log10 GI50 (converted)
[27] = non-small cell lung cancer, read-out: averaged negative log10 GI50 (converted)

SMILES: C=C1CC2CCC34CC5OC6C(O3)C3OC(CCC3OC6(O)C5O4)CC(=O)OC3C(CC4OC(CCC1O2)CC(C)C4=C)OC1CC2OC4(CC2OC1C3C)CC1OC2(CC(C)C3OC5CC(C(O)CO)OC5CC3O2)CC(C)C1O4 (stereo not drawn) [halistatin 2]
- GI50 [1, 24]: 0.389 nM
- IC (TGI) [1, 25]: 10 nM
- GI50 [1, 26]: 0.389 nM
- GI50 [2, 24]: 0.2 nM
- IC (TGI) [2, 25]: 4.27 nM
- GI50 [2, 26]: 0.2 nM
- GI50 [3, 24]: 1.2 nM
- IC (TGI) [3, 25]: 10 nM
- GI50 [3, 26]: 1.2 nM
- GI50 [4, 24]: 5.5 nM
- IC (TGI) [4, 25]: 10 nM
- GI50 [4, 26]: 5.5 nM
- GI50 [5, 24]: 2.82 nM
- IC (TGI) [5, 25]: 10 nM
- GI50 [5, 26]: 2.82 nM
- GI50 [6, 24]: 1.2 nM
- IC (TGI) [6, 25]: 10 nM
- GI50 [6, 26]: 1.2 nM
- GI50 [7, 24]: 0.537 nM
- IC (TGI) [7, 25]: 10 nM
- GI50 [7, 26]: 0.537 nM
- GI50 [8, 24]: 0.676 nM
- IC (TGI) [8, 25]: 5.75 nM
- GI50 [8, 26]: 0.676 nM
- GI50 [9, 24]: 0.331 nM
- IC (TGI) [9, 25]: 5.01 nM
- GI50 [10, 24]: 0.407 nM
- IC (TGI) [10, 25]: 10 nM
- GI50 [10, 26]: 0.407 nM
- GI50 ([11]; NCl-H460, non-small cell lung cancer, read-out: Log10 GI50 (converted)): 0.38 nM
- IC (TGI) ([11]; NCl-H460, non-small cell lung cancer, read-out: Log10 TGI (converted)): 6.76 nM
- GI50 [11, 27]: 0.38 nM
- GI50 ([12]; NCl-H522, non-small cell lung cancer, read-out: Log10 GI50 (converted)): 0.2 nM
- IC (TGI) ([12]; NCl-H522, non-small cell lung cancer, read-out: Log10 TGI (converted)): 0.55 nM
- GI50 [12, 27]: 0.2 nM
- GI50 [13, 24]: 0.407 nM
- IC (TGI) [13, 25]: 10 nM
- GI50 [13, 26]: 0.407 nM
- GI50 ([14]; RXF 393, printed RXP-393, renal cancer, read-out: Log10 GI50 (converted)): 0.479 nM
- IC (TGI) ([14]; RXF 393, printed RXP-393, renal cancer, read-out: Log10 TGI (converted)): 3.09 nM
- GI50 ([14]; RXF-393, renal cancer, read-out: averaged negative log10 GI50 (converted)): 0.479 nM
- GI50 [15, 24]: 0.309 nM
- IC (TGI) [15, 25]: 4.57 nM
- GI50 [15, 26]: 0.309 nM
- GI50 [16, 24]: 0.676 nM
- IC (TGI) [16, 25]: 10 nM
- GI50 [16, 26]: 0.676 nM
- GI50 [17, 24]: 0.12 nM
- IC (TGI) [17, 25]: 10 nM
- GI50 [17, 26]: 0.12 nM
- GI50 [18]: 0.214 nM
- GI50 [19, 24]: 0.479 nM
- IC (TGI) [19, 25]: 9.33 nM
- GI50 [19, 26]: 0.479 nM
- GI50 [20, 24]: 2.29 nM
- IC (TGI) [20, 25]: 10 nM
- GI50 [20, 26]: 2.29 nM
- GI50 [21, 24]: 6.03 nM
- IC (TGI) [21, 25]: 10 nM
- GI50 [21, 26]: 6.03 nM
- inhibition of tubulin polymerization (in words) [22]: inhibited tubulin polymerization
- IC50 ([22]; purified tubulin): 4900 ± 500 nM
- inhibition of radiolabeled vinblastine binding to tubulin (in words) [23]: inhibited the binding of radiolabeled vinblastine and GTP to tubulin
- type of inhibition of vinblastine binding (in words) [23]: noncompetitive inhibitor
- inhibition of radiolabeled vinblastine binding to tubulin ([23]; 5 μM): 51%
- inhibition of radiolabeled vinblastine binding to tubulin ([23]; 10 μM): 75%
